According to ChEMBL document CHEMBL1201862, “PubChem BioAssay data set” (2004):
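All cell lines were grown in 96-well plates and treated with compound for 48 hours. Abbreviation: GI50, concentration required for 50% inhibition of growth.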 Active and inactive are the calls of the source. Rule as the data show it: active = GI50 up to about 1.1 µM and inactive = higher.

Key:
Assay in all cases: NCI-60 cell line screen, 48 h
T47D = test system: T47D
HL-60 = test system: HL-60
Malme-3M = test system: Malme-3M
IGROV-1 = test system: IGROV-1
A549 = test system: A549
SK-MEL-2 = test system: SK-MEL-2
UACC-62 = test system: UACC-62
HT-29 = test system: HT-29
NCI-H522 = test system: NCI-H522
EKVX = test system: EKVX
SK-MEL-5 = test system: SK-MEL-5
Hs-578T = test system: Hs-578T
NCI-H23 = test system: NCI-H23
UACC-257 = test system: UACC-257
LOX IMVI = test system: LOX IMVI
PC-3 = test system: PC-3
COLO 205 = test system: COLO 205
OVCAR-5 = test system: OVCAR-5
OVCAR-3 = test system: OVCAR-3
U-251 = test system: U-251
KM12 = test system: KM12
OVCAR-4 = test system: OVCAR-4
MOLT-4 = test system: MOLT-4
OVCAR-8 = test system: OVCAR-8
SK-OV-3 = test system: SK-OV-3
RPMI-8226 = test system: RPMI-8226
M14 = test system: M14
SR = test system: SR
MDA-MB-231 = test system: MDA-MB-231
A498 = test system: A498
HCT-15 = test system: HCT-15
HOP-62 = test system: HOP-62
MCF7 = test system: MCF7
NCI/ADR-RES = test system: NCI/ADR-RES
K562 = test system: K562
SN12C = test system: SN12C
786-0 = test system: 786-0
MDA-N = test system: MDA-N
UO-31 = test system: UO-31
HCT-116 = test system: HCT-116
SF-295 = test system: SF-295
HOP-92 = test system: HOP-92
SF-539 = test system: SF-539
HCC 2998 = test system: HCC 2998
MDA-MB-435 = test system: MDA-MB-435
TK-10 = test system: TK-10
ACHN = test system: ACHN
CCRF-CEM = test system: CCRF-CEM
SNB-75 = test system: SNB-75
RXF 393 = test system: RXF 393
NCI-H226 = test system: NCI-H226
SNB-19 = test system: SNB-19
CAKI-1 = test system: CAKI-1
DU-145 = test system: DU-145
SF-268 = test system: SF-268
SK-MEL-28 = test system: SK-MEL-28
SW-620 = test system: SW-620

COC(=O)c1c2c(cc3c1CC1(Cc4cc5c(cc4C1)CCCC5)C3)CCCC2
GI50 (T47D): > 100 µM (inactive)
GI50 (HL-60): 80.4 µM (inactive)
GI50 (Malme-3M): > 100 µM (inactive)
GI50 (IGROV-1): > 100 µM (inactive)
GI50 (A549): 46.3 µM (inactive)
GI50 (SK-MEL-2): > 100 µM (inactive)
GI50 (UACC-62): > 100 µM (inactive)
GI50 (HT-29): > 100 µM (inactive)
GI50 (NCI-H522): > 100 µM (inactive)
GI50 (EKVX): > 100 µM (inactive)
GI50 (SK-MEL-5): > 100 µM (inactive)
GI50 (Hs-578T): > 100 µM (inactive)
GI50 (NCI-H23): > 100 µM (inactive)
GI50 (UACC-257): > 100 µM (inactive)
GI50 (LOX IMVI): > 100 µM (inactive)
GI50 (PC-3): > 100 µM (inactive)
GI50 (COLO 205): > 100 µM (inactive)
GI50 (OVCAR-5): > 100 µM (inactive)
GI50 (OVCAR-3): > 100 µM (inactive)
GI50 (U-251): > 100 µM (inactive)
GI50 (KM12): > 100 µM (inactive)
GI50 (OVCAR-4): > 100 µM (inactive)
GI50 (MOLT-4): > 100 µM (inactive)
GI50 (OVCAR-8): > 100 µM (inactive)
GI50 (SK-OV-3): > 100 µM (inactive)
GI50 (RPMI-8226): > 100 µM (inactive)
GI50 (M14): > 100 µM (inactive)
GI50 (SR): 27.5 µM (inactive)
GI50 (MDA-MB-231): > 100 µM (inactive)
GI50 (A498): > 100 µM (inactive)
GI50 (HCT-15): > 100 µM
GI50 (HOP-62): > 100 µM (inactive)
GI50 (MCF7): > 100 µM (inactive)
GI50 (NCI/ADR-RES): > 100 µM (inactive)
GI50 (K562): > 100 µM (inactive)
GI50 (SN12C): > 100 µM (inactive)
GI50 (786-0): > 100 µM (inactive)
GI50 (MDA-N): > 100 µM (inactive)
GI50 (UO-31): > 100 µM (inactive)
GI50 (HCT-116): 15.3 µM (inactive)
GI50 (SF-295): > 100 µM (inactive)
GI50 (HOP-92): > 100 µM (inactive)
GI50 (SF-539): > 100 µM (inactive)
GI50 (HCC 2998): > 100 µM (inactive)
GI50 (MDA-MB-435): > 100 µM (inactive)
GI50 (TK-10): > 100 µM (inactive)
GI50 (ACHN): > 100 µM (inactive)
GI50 (CCRF-CEM): 12 µM (inactive)
GI50 (SNB-75): 0.155 µM (active)
GI50 (RXF 393): 25.8 µM (inactive)

CCCCC1=C(C(=O)N2CCOCC2)C2(OCCO2)C1Cl (configuration not stated)
GI50 (T47D): 46 µM (inactive)
GI50 (HL-60): > 100 µM (inactive)
GI50 (Malme-3M): 33.6 µM (inactive)
GI50 (IGROV-1): 32.4 µM (inactive)
GI50 (A549): 20.6 µM (inactive)
GI50 (SK-MEL-2): 19.8 µM (inactive)
GI50 (UACC-62): 31.6 µM (inactive)
GI50 (HT-29): 24.4 µM (inactive)
GI50 (NCI-H522): 27.1 µM (inactive)
GI50 (EKVX): 47.1 µM (inactive)
GI50 (SK-MEL-5): 18.5 µM (inactive)
GI50 (Hs-578T): 30.1 µM (inactive)
GI50 (NCI-H23): 25.5 µM (inactive)
GI50 (UACC-257): 24.3 µM (inactive)
GI50 (LOX IMVI): 28.2 µM (inactive)
GI50 (PC-3): 35.6 µM (inactive)
GI50 (COLO 205): 23.1 µM (inactive)
GI50 (OVCAR-5): 19.4 µM (inactive)
GI50 (NCI-H226): 35.8 µM (inactive)
GI50 (U-251): 35.8 µM (inactive)
GI50 (KM12): 20.7 µM (inactive)
GI50 (SNB-19): 32.3 µM (inactive)
GI50 (OVCAR-4): 28.8 µM (inactive)
GI50 (CAKI-1): 29.2 µM (inactive)
GI50 (MOLT-4): > 100 µM (inactive)
GI50 (OVCAR-8): 45.9 µM (inactive)
GI50 (SK-OV-3): 26 µM (inactive)
GI50 (M14): 16.9 µM (inactive)
GI50 (MDA-MB-231): 64 µM (inactive)
GI50 (DU-145): 44.5 µM (inactive)
GI50 (A498): 66.7 µM (inactive)
GI50 (HCT-15): 26.9 µM
GI50 (HOP-62): 35.2 µM (inactive)
GI50 (MCF7): 20 µM (inactive)
GI50 (NCI/ADR-RES): 45.9 µM (inactive)
GI50 (SN12C): 22.2 µM (inactive)
GI50 (SF-268): 40.8 µM (inactive)
GI50 (786-0): 36.4 µM (inactive)
GI50 (MDA-N): 14.8 µM (inactive)
GI50 (SK-MEL-28): 23 µM (inactive)
GI50 (UO-31): 56.6 µM (inactive)
GI50 (HCT-116): 41.7 µM (inactive)
GI50 (SF-295): 28.1 µM (inactive)
GI50 (HOP-92): 50.2 µM (inactive)
GI50 (SF-539): 16.4 µM (inactive)
GI50 (MDA-MB-435): 21.7 µM (inactive)
GI50 (TK-10): 29.9 µM (inactive)
GI50 (ACHN): 20 µM (inactive)
GI50 (CCRF-CEM): > 100 µM (inactive)
GI50 (SW-620): 31 µM (inactive)
GI50 (SNB-75): 30.2 µM (inactive)
GI50 (RXF 393): 29.5 µM (inactive)
